Measured values taken from patent US20230364205A1, “COMPOSITIONS AND METHODS FOR TREATING SERRATED COLORECTAL CANCER” (SANFORD BURNHAM PREBYS MEDICAL DISCOVERY INSTITUTE, priority 2020, published 2023).
“Also recorded” adds a separate entry of the source.

Assays:
WT organoids = assay: interferon response of WT small intestine organoids to 5-AZA-CdR; type: cell-based, mouse
Method: (§1) For generation of small intestine organoids, organoids were collected in ice-cold TrypLE solution (e.g., Life Technologies) to remove Matrigel, then pipetted 5 cycles and incubated 5 min at 37° C. to obtain single-cell suspension. Cells were washed twice in PBS 3% FBS and resuspended at room temperature with PBS with 100 μg/ml DNase I for 10 min before staining with anti-H-2Kb (clone AF6-88.5.5.3; eBioscience). For antigen presentation in MODE-K cells, cells were washed in PBS, trypsinized and wash with warm medium. Then, cells were resuspended and stained with anti-H-2Kk (clone 36-7-5; BioLegend) and anti-H-2Dk (clone 15-5-5; BD Pharmingen). Dead cells were excluded after 7-AAD staining. All flow cytometry experiments were performed on a BD LSRFortessa 14-colors analyzer at the Sanford Burnham Prebys Medical Discovery Institute Shared FACS Facility and flow cytometry data were analyzed using FlowJo software (Tree Star Inc.).
(§2) Intestinal epithelial cell […] isolation was performed as described previously Llado et al., Repression of Intestinal Stem Cell Function and Tumorigenesis through Direct Phosphorylation of β-catenin and Yap by PKCζ. Cell Reports (2015) 10,740-754, with some modification. […] Adenoma fragments were counted after isolation and a total of 250-500 fragments were mixed with 100 μl of growth factor reduced-Matrigel and plated in 12- or 24-well plates. […]

ZKO organoids = assay: interferon response of ZKO (PKCζ-lacking) small intestine organoids to 5-AZA-CdR; type: cell-based, mouse
Method: as §1, §2

DKO^IEC mouse tumors = assay: TGF-βR1-specific inhibition experiment (galunisertib) in DKO^IEC mice; type: in vivo
Method: For CD8+ T cell depletion (FIG. 4, Panels A-L), 10-week-old LKO^IEC mice were injected intraperitoneally with 200 μg of anti-CD8 antibody (clone 2.43) or control IgG twice a week for 5 weeks until they were sacrificed. For the TGF-βR1-specific inhibition experiment, 10-week-old DKO^IEC mice were treated twice a day with a dose of 10 mg of galunisertib (Tauriello et al., 2018) per os for 6 weeks until they were sacrificed. Control mice were treated with vehicle. For checkpoint immunotherapy, either 10-week-old or 13-week-old DKO^IEC mice were injected intraperitoneally with a dose of 10 mg/kg (body mass) of anti-PD-L1 antibody (clone 6E11) twice a week for 3 weeks until they were sacrificed. For the combination therapy of anti-PD-L1 antibody and TGF-βR1-specific inhibitor, 23-week-old DKO^IEC mice were treated twice a day with a dose of 10 mg of galunisertib per os and injected intraperitoneally with a dose of 10 mg/kg (body mass) of anti-PD-L1 antibody twice a week for 3 weeks until they were sacrificed. Anti-PD-L1 antibody was provided by de Sauvage FJ (Genentech).
Organs were isolated, rinsed in ice-cold PBS, fixed in 10% neutral buffered formalin overnight at 4° C., dehydrated, and embedded in paraffin. Sections (5 μm) were stained with hematoxylin and eosin (H&E). For immunohistochemistry, sections were deparaffinized, rehydrated, and then treated for antigen retrieval. After blocking in Protein Block Serum-Free solutions (DAKO), tissues were incubated with primary antibody overnight at 4° C. followed by incubation with biotinylated secondary antibody. Endogenous peroxidase was quenched in 3% H2O2 in water for 10 min at room temperature. Antibodies were visualized with avidin/biotin complex (e.g., Vectastain Elite; Vector Laboratories) using diaminobenzidine as the chromogen. For immunofluorescence, fresh frozen organs were embedded in Tissue-Tek OCT compound (e.g., Sakura) and section of 10 μm were fixed in methanol, washed with PBS and then incubated with the primary antibodies. Washed sections were incubated with Alexa-conjugated secondary antibodies (e.g., Life Technologies) and examined with a Zeiss LSM 710 NLO Confocal Microscope. In situ hybridization for murine Ereg was carried out using RNAscope Multiplex Fluorescent Assay kit (Advanced Cell Diagnostics) following manufacturer's instructions. The probe corresponding to CDS region of murine Ereg (Accession #: NM_007950.2, probe region: 116-1496; Advanced Cell Diagnostics; Cat #: 437981). Cell death was analyzed using the In-Situ Cell Death Detection kit, TMR red (Thermo) for TUNEL. Masson's Trichrome staining was carried out following manufacturer's instructions (Sigma HT15-1KT).
Flow cytometry experiments were performed using fresh small intestinal tissue and organoid preparations. For the analyses of small intestinal tissue, a half part of duodenum, jejunum, and ileum was used for quantitative flow cytometry analysis of immune cell population of lamina propria. Briefly, small intestines were rinsed in cold PBS, minced into small pieces, incubated in HBSS with EDTA (5 mM) and digested with collagenase (0.05 mg/ml) for 30 min at 37° C., followed by a discontinuous Percoll separation method (40 and 75%) to purify immune cells. The cells concentrated at the interface were collected and washed in cold PBS. Red blood cells were removed with lysing buffer (BD Pharm Lyse) and live cells were counted using Trypan blue and then saturated with mouse Fc Block (purified anti-mouse CD16/CD32; 1:50; clone 2.4G2; BD Pharmingen) 30 min at 4° C. before incubating with specific dyed antibodies.
For IL-17A intracellular staining, cells were pretreated with 50 ng/ml of phorbolmyristate acetate and 500 ng/ml of ionomycin in the presence of 10 μg/ml of brefeldin A for 3 hr at 37° C. 5% CO2. […]

[1] = tested on: serrated aPKC-DKO^IEC tumors; assay: PVHA treatment of aPKC-DKO^IEC mice; type: in vivo, mouse
Method: Mice treatment with PVHA: For the hyaluronidase-specific inhibition experiment, 11-week-old aPKC-DKO^IEC mice were injected intravenously twice per week with a low dose of 0.0375 mg or high dose of 0.2 mg/Kg of PVHA (Halozyme) for 3 weeks until they were sacrificed. Control mice were treated with vehicle.
Histology, immunohistochemistry: Organs were isolated, rinsed in ice-cold PBS, fixed in 10% neutral buffered formalin overnight at 4° C., dehydrated, and embedded in paraffin. For Masson TriChrome staining, the sections (5 μm) were deparaffinized, rehydrated, and then stained with the Trichrome Stain (Masson) Kit (Sigma-Aldrich, #HT15) following the manufacturer's instructions. For hyaluronan staining, sections (5 μm) were deparaffinized, rehydrated, and then incubated with biotinylated hyaluronan binding protein (Millipore Sigma, #385911) overnight at 4° C., followed by incubation with streptavidin HRP conjugate (Invitrogen, #434323). Staining was developed using diaminobenzidine. For CD8 staining, sections (5 μm) were deparaffinized, rehydrated, and then treated for antigen retrieval (Citrate, pH6) with heat. After blocking in Protein Block Serum-Free solutions (DAKO), tissues were incubated with primary antibody (anti-mouse CD8 (BD, #557654) overnight at 4° C. followed by incubation with biotinylated secondary antibody. Endogenous peroxidase was quenched in 3% H2O2 in water for 10 min at room temperature. Antibodies were visualized with avidin/biotin complex (Vectastain Elite; Vector Laboratories) using diaminobenzidine as the chromogen.

[2] = 3 μM for 24 hours, then drug-free culture, qRT-PCR
[3] = 10-week-old DKO^IEC mice, 10 mg per os twice a day for 6 weeks
[4] = aPKC-DKO^IEC mice, i.v. twice per week for 3 weeks from week 11

Question: `Nc1ncn([C@H]2C[C@H](O)[C@@H](CO)O2)c(=O)n1` [5-AZA-CdR, 5-aza-2-deoxycytidine] was tested. Which “expression of interferon-responsive genes Irf7, Oas1a, Isg15, and Cxcl10” value (WT organoids; [2]) did it give?
Answer: Its value is “robustly induced”.

Question: And the “MHC class I long-chain H-2K^b on the surface” value (WT organoids; flow cytometry)?
Answer: Its value is “upregulated”.

Question: What about the “expression of interferon-responsive genes Irf7, Oas1a, Isg15, and Cxcl10” value (ZKO organoids; [2]) of the same compound?
Answer: The value was “severely abrogated”.

Question: What about the “MHC class I long-chain H-2K^b on the surface” value (ZKO organoids; flow cytometry) of the same compound?
Answer: Its value is “but not on ZKO organoids”.

Question: `Cc1cccc(-c2nn3c(c2-c2ccnc4ccc(C(N)=O)cc24)CCC3)n1` [galunisertib] was tested. Which “incidence of invasive cancer” value (DKO^IEC mouse tumors; [3]) did it give?
Answer: The value was “reduced”.

Question: What about the “progression of SSA/P to the adenocarcinoma stage” value (DKO^IEC mouse tumors; [3]) of the same compound?
Answer: Its value is “suppressed”.

Question: And the tumor load (DKO^IEC mouse tumors; [3])?
Answer: The tumor load was “did not reduce”.

Question: What about the tumor number (DKO^IEC mouse tumors; [3]) of the same compound?
Answer: The tumor number was “did not reduce”.

Question: What about the tumor size (DKO^IEC mouse tumors; [3]) of the same compound?
Answer: The tumor size was “did not reduce”.

Question: What about the “proportion of PD-L1+/CD45+ cells infiltrating DKO^IEC tumors” value (DKO^IEC mouse tumors; CD45/PD-L1 staining) of the same compound?
Answer: Its value is “not affected”.

Question: What about the collagen deposition (DKO^IEC mouse tumors; Masson's trichrome staining of small intestinal tumors, DKO^IEC mice) of the same compound?
Answer: The collagen deposition was “inhibition”.

Question: And the “proportion of CD8+ T cells” value (DKO^IEC mouse tumors; flow cytometry, DKO^IEC tumors)?
Answer: Its value is “did not significantly change”.

Question: And the “proportion of CD11b+ myeloid cells” value (DKO^IEC mouse tumors; flow cytometry, DKO^IEC tumors)?
Answer: The value was “did not significantly change”.

Question: And the “proportion of Th17 cells in the tumors” value (DKO^IEC mouse tumors; flow cytometry, DKO^IEC tumors)?
Answer: Its value is “reduction”.

Question: What about the “proportion of Treg cells” value (DKO^IEC mouse tumors; flow cytometry, DKO^IEC tumors) of the same compound?
Answer: Its value is “did not significantly change”.

Question: And the “expression of TGF-β-responsive genes, such as Angptl2, Cdkn2b, Il11, and Ereg” value (DKO^IEC mouse tumors; qRT-PCR mRNA levels, DKO^IEC mice)?
Answer: The value was “reduced expression”.

Question: And the “stromal phospho-SMAD2” value (DKO^IEC mouse tumors; staining of small intestinal tumors, DKO^IEC mice)?
Answer: Its value is “inhibition”.

Question: For Pegvorhyaluronidase alfa [PVHA], which “progression of SSA/Ps to the adenocarcinoma stage” value ([1]; 11-week-old aPKC-DKO^IEC mice, i.v. twice per week for 3 weeks, low and high dose) is on record?
Answer: Its value is “suppressed”.

Question: And the “number of CD8+ T cells stained in the tumor tissue (infiltration of CD8+ T cells)” value ([1]; CD8 staining of small intestinal tumors, compared to vehicle-treated samples)?
Answer: The value was “substantially increased; also recorded: increases”.

Question: What about the “collagen deposition in the tumors” value ([1]; Masson trichrome staining of small intestinal tumors) of the same compound?
Answer: Its value is “reduced”.

Question: What about the tumor load [1, 4] of the same compound?
Answer: Its tumor load is “reduced”.

Question: What about the tumor number [1, 4] of the same compound?
Answer: The tumor number was “reduced”.

Question: What about the tumor size [1, 4] of the same compound?
Answer: The tumor size was “reduced”.

Question: What about the “serrated tumors in aPKC-DKO^IEC mice” value ([1]; figure legends FIG. 17 and FIG. 18) of the same compound?
Answer: Its value is “reduces”.

Question: What about the “incidence of invasive cancer” value ([1]; high dose of 0.2 mg/Kg, i.v. twice per week for 3 weeks from week 11) of the same compound?
Answer: The value was “reduced”.

Question: What about the tumor burden ([1]; high dose of PVHA) of the same compound?
Answer: Its tumor burden is “reduce tumor burden substantially”.

Question: What about the “hyaluronan deposition in the tumors” value ([1]; hyaluronan staining of small intestinal tumors, low dose of PVHA (0.0375 mg/kg)) of the same compound?
Answer: The value was “reduced”.

Question: And the “incidence of invasive cancer” value ([1]; low dose of 0.0375 mg, i.v. twice per week for 3 weeks from week 11)?
Answer: The value was “reduced”.

Question: And the tumor burden ([1]; low dose of PVHA)?
Answer: Its tumor burden is “reduce tumor burden substantially”.
